Results published in PubChem BioAssay (NCI).
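Five concentrations, 48 hours, 96-well plates. GI50 = concentration required for 50% inhibition of growth. TGI: concentration producing complete growth inhibition.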

Key:
Assay in all cases: NCI-60 cell line screen, 48 h
[1] = system: A549 NSCLC
[2] = system: UACC-62 melanoma
[3] = system: BT-549 breast
[4] = system: RPMI-8226 leukemia
[5] = system: SW-620 colon
[6] = system: SK-OV-3 ovarian
[7] = system: CAKI-1 renal
[8] = system: PC-3 prostate
[9] = system: HT29 colon
[10] = system: HL-60(TB) leukemia

SMILES | TGI [1] [µM] | TGI [2] [µM] | TGI [3] [µM] | TGI [4] [µM] | TGI [5] [µM] | TGI [6] [µM] | TGI [7] [µM] | TGI [8] [µM] | TGI [9] [µM] | TGI [10] [µM] | GI50 [1] [µM] | GI50 [2] [µM] | GI50 [3] [µM] | GI50 [4] [µM] | GI50 [5] [µM] | GI50 [6] [µM] | GI50 [7] [µM] | GI50 [9] [µM] | GI50 [10] [µM] | GI50 [8] [µM]
O=C(CCCN1CCC(O)(c2ccc(Cl)cc2)CC1)c1ccc(F)cc1 | > 100 | 21.4 | > 100 | > 100 | 39.6 | > 100 | 23.4 | > 100 | > 100 |  |  |  |  |  |  |  |  |  |  | 
CC(=O)Nc1c(Nc2ccccc2)[nH]c(C)nc1=S | > 100 | > 100 |  | > 100 | > 100 | > 100 | > 100 |  |  | > 100 |  |  |  |  |  |  |  |  |  | 
c1ccc2c3c([nH]c2c1)[C@H]1C2CCCCN2CN1CC3 (stereo partly specified) | > 100 | > 100 |  | > 100 | > 100 | > 100 | > 100 |  | > 100 | > 100 |  |  |  |  |  |  |  |  |  | 
COc1ccc2c(c1OC)CO[C@@H]2[C@H]1c2c(cc3c(c2OC)OCO3)CCN1S(=O)(=O)c1cn(C)cn1 | > 100 | > 100 | 84.8 | 30.2 | > 100 | > 100 | > 100 |  | > 100 | 4.9 | 1.99 | 0.803 | 2.87 | 2.48 | 1.2 | 2.57 | 1.01 | 0.614 | 1.66 | 
CNC(=O)c1c(NC(=O)c2ccc(C(C)(C)C)cc2)sc2c(CN(C)C)c(O)ccc12 |  | 3.24 |  |  | 3.38 |  | 3.25 |  |  | 3.18 |  | 1.76 |  |  | 1.74 |  | 1.68 |  | 1.26 | 
CC1/C(=N\O)CC(c2ccccc2)N(C)C1c1ccccc1 (stereo unspecified) | > 100 | > 100 |  |  | > 100 | > 100 | > 100 |  | > 100 | > 100 |  |  |  |  |  |  |  |  |  | 
CC(N)(Cc1c[nH]c2cccc(F)c12)C(=O)O (stereo unspecified) | > 1000 | > 1000 |  | > 1000 | > 1000 | > 1000 | > 1000 | > 1000 | > 1000 | > 1000 | > 1000 | > 1000 |  | > 1000 | > 1000 | 992 | > 1000 | > 1000 | > 1000 | > 1000
Nc1ccc(C2=CC(c3ccc(Cl)cc3)N3C=CSC3=N2)cc1 (stereo unspecified) | 53.4 | 18.1 | 7 |  | 4.51 | 25.5 | > 100 | > 100 | 6.98 | 53.5 | 3.68 | 4.4 | 2.64 |  | 2.07 | 5.07 | 23.1 | 2.79 | 6.13 | 8.8
CN(C)CCNC(=O)c1cccc2cc3c(Cl)cccc3nc12 | 9.35 | 3.82 |  | 14.2 | 6.17 | 10.8 | > 21.8 |  | 6.94 |  |  |  |  |  |  |  |  |  |  | 
CCOC(=O)C(=O)CC1=Nc2ccccc2SC(c2cccc(C)c2)C1 (stereo unspecified) | 50.8 | 31.9 |  | 67.3 | 43.4 |  | 54 |  | 29.8 |  |  |  |  |  |  |  |  |  |  | 
